Assay results taken from patent USRE38576E1, “Stabilized aspirin compositions and method of preparation for oral and topical use” (priority 2000, dated 2004).

How the values were obtained:
[1] = dimethyl isosorbate as solvent; cited from earlier work
[2] = pH of KSA / KASA formulas; type: physicochemical
Method: In 50 ml water, 37 gms KOH are mixed with 76 gms SA. […] Administration is by gradual ingestion by sipping. A much higher dose of 2 gm KSA can be administered as needed using two 1 gm doses separated by an interval of time so that the doses overlap closely.
An example of a topical KSA is as follows: Using the supersaturated KSA formula of Example 1, a topical formula was prepared as follows: 225 ml Aloe Vera Gel was mixed with 2½ ml liquid castile soap (Dr. Bronner's was used), and 2½ ml vegetable glycerin. Dry ingredients of 900 mg citric acid, 600 mg guar gum and 14 gm dehydrated KSA are separately mixed.

[3] = 1 gm dehydrated product mixed with 225 ml water

Structure (SMILES)	concentration of ASA achieved in solution [1]	pH [2, 3]	pH ([2]; concentrated solution as prepared, before dehydration)
CC(=O)Oc1ccccc1C(=O)O [ASA, acetylsalicylic acid]	280 mg of ASA/ml	–	–
CC(=O)Oc1ccccc1C(=O)[O-].[K+] [KASA, potassium acetylsalicyclic acid]	–	8.42	–
O=C(O)c1ccccc1O.[K] [KSA, potassium salicylic acid]	–	8.90	12.0-13.0
